Experimental data reported in patent US8916499B2, “Herbicidal compositions comprising 4-amino-3-chloro-5-fluoro-6-(4-chloro-2-fluoro-3-methoxyphenyl) pyridine-2-carboxylic acid or a derivative thereof and a protoporphyrinogen oxidase inhibitor” (Dow AgroSciences LLC, priority 2012, dated 2014).

Legend:
LEFCH [1] = test: In-water applied weed control, transplanted paddy rice, greenhouse (Example II); type: in vivo, Leptochloa chinensis (L.) Nees
CYPRO = test: as above; type: in vivo, Cyperus rotundus L.
SCPJU = test: as above; type: in vivo, Schoenoplectus juncoides (Roxb.) Palla
IPOHE [2] = test: Postemergence foliar-applied weed control, direct seeded rice, greenhouse (Example I); type: in vivo, Ipomoea hederacea Jacq.
ECHCG = test: In-water applied weed control, transplanted paddy rice, greenhouse (Example II); type: in vivo, Echinochloa crus-galli (L.) P. Beauv.
LEFCH [3] = test: Postemergence foliar-applied weed control, direct seeded rice, greenhouse (Example I); type: in vivo, Leptochloa chinensis (L.) Nees; details: g ae/ha Compound A Acid+g ai/ha carfentrazone-ethyl: r39 19.4+0, r40 0+28, r41 19.4+28
BRAPP = test: as above; type: in vivo, Brachiaria platyphylla (Griseb.) Nash; details: g ae/ha Compound A Acid+g ai/ha pyraclonil: r11 4.38+0, r12 0+33.75, r13 0+67.5, r14 0+135, r15 4.38+33.75, r16 4.38+67.5, r17 4.38+135
ECHCO = test: as above; type: in vivo, Echinochloa colona (L.) Link; details: g ae/ha Compound A Acid+g ai/ha saflufenacil: r24 4.38+0, r25 0+5, r26 0+10, r27 0+20, r28 4.38+5, r29 4.38+10, r30 4.38+20
ECHOR = test: In-water applied weed control, transplanted paddy rice, greenhouse (Example II); type: in vivo, Echinochloa oryzoides (Ard.) Fritsch; details: g ae/ha Compound A Acid+g ai/ha carfentrazone-ethyl: r28 42.4+0, r29 0+215, r30 42.4+215
FIMMI = test: as above; type: in vivo, Fimbristylis miliacea (L.) Vahl; details: 8.75 g ae/ha alone
CYPIR = test: Postemergence foliar-applied weed control, direct seeded rice, greenhouse (Example I); type: in vivo, Cyperus iria L.; details: g ae/ha Compound A Acid+g ai/ha saflufenacil: r24 4.38+0, r25 0+5, r26 0+10, r27 0+20, r28 4.38+5, r29 4.38+10, r30 4.38+20
SETVI = test: Pre-emergence soil-applied weed control, greenhouse (Example IV); type: in vivo, Setaria viridis (L.) Beauv.; details: 105 g ai/ha alone
Description: (§1) Seeds or nutlets of the desired test plant species were planted in a soil matrix prepared by mixing a loam soil (32 percent silt, 23 percent clay, and 45 percent sand, with a pH of about 6.5 and an organic matter content of about 1.9 percent) and calcareous grit in an 80 to 20 ratio. The soil matrix was contained in plastic pots with a volume of 1 quart and a surface area of 83.6 square centimeters (cm^2).
(§2) Treatments consisted of the benzyl ester of 4-amino-3-chloro-5-fluoro-6-(4-chloro-2-fluoro-3-methoxy-phenyl)pyridine-2-carboxylic acid (compound A) formulated as an SC (suspension concentrate) and various herbicidal components alone and in combination. Forms of compound A were applied on an acid equivalent basis.
(§3) Other herbicidal components were applied on an acid equivalent or active ingredient basis and included the protoporphyrinogen oxidase (PPO)-inhibiting herbicides, flumioxazin formulated as Payload® and oxadiazon formulated as Ronstar® 50W.
(§4) Treatment requirements were calculated based upon the rates being tested, the concentration of active ingredient or acid equivalent in the formulation, and a 12 mL application volume at a rate of 187 L/ha.
For treatments comprised of formulated compounds, measured amounts of compounds were placed individually in 25 mL glass vials and diluted in a volume of 1.25% (v/v) Agri-Dex® crop oil concentrate (COC) to obtain 12× stock solutions. […] Application solutions were prepared by adding an appropriate amount of each stock solution (e.g., 1 mL) and diluted to the appropriate final concentrations with the addition of 10 mL of an aqueous mixture of 1.25% (v/v) COC so that the final spray solutions contained 1.25% (v/v) COC. […]
(§5) The treated and control pots were placed in a greenhouse and top watered as needed. […] After approximately 4 weeks, the condition of the test plants as compared with that of the untreated plants was determined visually and scored on a scale of 0 to 100 percent where 0 corresponds to no injury or growth inhibition and 100 corresponds to complete kill. […]

XANST = test: as above; type: in vivo, Xanthium strumarium L.
Description: as §1, §2, §3, §4
(§6) For treatments comprised of formulated compounds, measured amounts of compounds were placed individually in 25 mL glass vials and diluted in a volume of 1.25% (v/v) Agri-Dex® crop oil concentrate (COC) to obtain 12× stock solutions. […] Application solutions were prepared by adding an appropriate amount of each stock solution (e.g., 1 mL) and diluted to the appropriate final concentrations with the addition of 10 mL of an aqueous mixture of 1.25% (v/v) COC so that the final spray solutions contained 1.25% (v/v) COC.
(§7) All stock solutions and applications solutions were visually inspected for compound compatibility prior to application. Spray solutions were applied to the soil with an overhead Mandel track sprayer equipped with a 8002E nozzles calibrated to deliver 187 L/ha over an application area of 0.503 m^2 at a spray height of 18 inches (46 cm) above average pot height. Control pots were sprayed in the same manner with the solvent blank.
as §5, with “needed. When required to ensure good germination and healthy plants, a fungicide treatment and/or other chemical or physical treatment was applied. The pots were maintained in a greenhouse with an approximate 14 hr photoperiod which was maintained at about 29° C. during the day and 26° C. during the night.” for “needed.”

IPOHE [4] = test: as above; type: in vivo, Ipomoea hederacea (L.) Jacq.
Description: as §1, §2, §3, §4, §6, §7
The treated and control pots were placed in a greenhouse and top watered as needed. When required to ensure good germination and healthy plants, a fungicide treatment and/or other chemical or physical treatment was applied. The pots were maintained in a greenhouse with an approximate 14 hr photoperiod which was maintained at about 29° C. during the day and 26° C. during the night. Nutrients (Peters® Excel 15-5-15 5-Ca 2-Mg) were applied in the irrigation solution as needed and water was added on a regular basis. Supplemental lighting was provided with overhead metal halide 1000-Watt lamps as necessary. After approximately 4 weeks, the condition of the test plants as compared with that of the untreated plants was determined visually and scored on a scale of 0 to 100 percent where 0 corresponds to no injury or growth inhibition and 100 corresponds to complete kill.
Colby's equation was used to determine the herbicidal effects expected from the mixtures (Colby, S. R. 1967. Calculation of the synergistic and antagonistic response of herbicide combinations. Weeds 15:20-22.).
The following equation was used to calculate the expected activity of mixtures containing two active ingredients, A and B: Expected=A+B−(A×B/100)

## COc1c(Cl)ccc(-c2nc(C(=O)O)c(Cl)c(N)c2F)c1F [Compound A Acid, 4-amino-3-chloro-5-fluoro-6-(4-chloro-2-fluoro-3-methoxy-phenyl)pyridine-2-carboxylic acid]
LEFCH [1]; 17.5 g ae/ha alone
  Visual Weed Control (%) - 20 DAA LEFCH Obs: 0%
LEFCH [1]; 35 g ae/ha alone
  Visual Weed Control (%) - 20 DAA LEFCH Obs: 30%
  Visual Weed Control (%) - 21 DAA LEFCH Obs: 5%
LEFCH [1]; 70 g ae/ha alone
  Visual Weed Control (%) - 21 DAA LEFCH Obs: 23%
CYPRO; 8.75 g ae/ha alone
  Visual Weed Control (%) - 20 DAA CYPRO Obs: 0%
CYPRO; 17.5 g ae/ha alone
  Visual Weed Control (%) - 20 DAA CYPRO Obs: 20%
CYPRO; 35 g ae/ha alone
  Visual Weed Control (%) - 20 DAA CYPRO Obs: 80%
  Visual Weed Control (%) - 21 DAA CYPRO Obs: 70%
SCPJU; 8.75 g ae/ha alone
  Visual Weed Control (%) - 21 DAA SCPJU Obs: 40%
SCPJU; 17.5 g ae/ha alone
  Visual Weed Control (%) - 21 DAA SCPJU Obs: 60%
SCPJU; 35 g ae/ha alone
  Visual Weed Control (%) - 21 DAA SCPJU Obs: 95%
IPOHE [2]; first section, g ae/ha Compound A Acid+g ai/ha oxadiazon: r12 8.75+0, r13 0+31.25, r14 0+62.5, r15 0+125, r16 8.75+31.25, r17 8.75+62.5, r18 8.75+125
  Visual Weed Control (%) - 20 DAA IPOHE Obs: 10%
IPOHE [2]; g ae/ha Compound A Acid+g ai/ha pyraclonil: r53 35+0, r54 0+270, r55 35+270
  Visual Weed Control (%) - 21 DAA IPOHE Obs: 45%
ECHCG; 8.75 g ae/ha alone
  Visual Weed Control (%) - 21 DAA ECHCG Obs: 15%
ECHCG; 17.5 g ae/ha alone
  Visual Weed Control (%) - 20 DAA ECHCG Obs: 50%
  Visual Weed Control (%) - 21 DAA ECHCG Obs: 20%
ECHCG; 35 g ae/ha alone
  Visual Weed Control (%) - 20 DAA ECHCG Obs: 95%
  Visual Weed Control (%) - 21 DAA ECHCG Obs: 95%
LEFCH [3]
  Visual Weed Control (%) - 19 DAA LEFCH Obs: 5%
BRAPP
  Visual Weed Control (%) - 20 DAA BRAPP Obs: 10%
ECHCO
  Visual Weed Control (%) - 20 DAA ECHCO Obs: 40%
ECHOR
  Visual Weed Control (%) - 19 DAA ECHOR Obs: 15%
FIMMI
  Visual Weed Control (%) - 21 DAA FIMMI Obs: 0%
CYPIR
  Visual Weed Control (%) - 20 DAA CYPIR Obs: 30%

## C#CCN1C(=O)COc2cc(F)c(N3C(=O)C4=C(CCCC4)C3=O)cc21 [Fumioxazin]
SETVI
  Visual Weed Control (%) - 28 DAA SETVI Obs: 73%
XANST; 105 g ai/ha alone
  Visual Weed Control (%) - 29 DAA XANST Obs: 18%
XANST; 210 g ai/ha alone
  Visual Weed Control (%) - 29 DAA XANST Obs: 48%
IPOHE [4]; 105 g ai/ha alone
  Visual Weed Control (%) - 28 DAA IPOHE Obs: 70%
IPOHE [4]; 210 g ai/ha alone
  Visual Weed Control (%) - 28 DAA IPOHE Obs: 70%
IPOHE [4]; 420 g ai/ha alone
  Visual Weed Control (%) - 28 DAA IPOHE Obs: 90%
